Data on 5 molecules can be found in patent publication US20140080810A1 (Exelixis, Inc., priority 2010, published 2014).

Read-outs that look alike come from different tables or passages of the source.

The target of one experiment is PI3Kβ (Homo sapiens, UniProt P42338). As to the kind of experiment: PI3K Biochemical Assay. Conditions: PIP2 used as substrate. The procedure:
PI3Kα activity is measured as the percent of ATP consumed following the kinase reaction using luciferase-luciferin-coupled chemiluminescence. Reactions were conducted in 384-well white, medium binding microtiter plates (Greiner). Kinase reactions were initiated by combining test compounds, ATP, substrate (PIP2), and kinase in a 20 μL volume in a buffer solution. The standard PI3Kalpha assay buffer is composed 50 mM Tris, pH 7.5, 1 mM EGTA, 10 mM MgCl2, 1 mM DTT and 0.03% CHAPS. The standard assay concentrations for enzyme, ATP, and substrate are 1.5 nM, 1 μM, and 10 μM, respectively. The reaction mixture was incubated at ambient temperature for approximately 2 h. Following the kinase reaction, a 10 μL aliquot of luciferase-luciferin mix (Promega Kinase-Glo) was added and the chemiluminescence signal measured using a Victor2 plate reader (Perkin Elmer). […] Substituting PI3Kα with PI3Kβ, PI3Kγ, or PI3Kδ, the inhibitory activity of the compounds for the other isoforms of I3K were measured.

Experiment [1] deals with pAKT (T308) in T-47D cells (PI3Kα H1047R). As to the kind of experiment: pAKT (T308) ELISA Assay. Format: cell-based. Conditions: Homo sapiens, T47D, IGF1 stimulation. The procedure: (§1) In another embodiment, the pAKT ELISA Assay was performed by seeding cells onto 96-well plates (Corning, 3904) in their respective growth media at the densities listed in Table 5. Cells were incubated at 37° C., 5% CO2 for 48 h (except MDA-MB-453 cells which were cultured in the absence of CO2). Compounds were serially diluted in DMSO and subsequently diluted in serum-free DMEM. Test compounds were added to cells in serum-free DMEM at a final concentration of 0.3% DMSO and incubated for 3 h. Cells were lysed with 130 μL of ice-cold RIPA lysis buffer (50 mM Tris-HCl, pH 7.5; 0.5% sodium deoxycholic acid; 1% Triton X-100; 0.1% SDS; 150 mM NaCl) with protease and phosphatase inhibitors (1 mM EDTA, 1 mM NaF, 20 mM β-glycerophosphate, 1 mM Na-orthovanadate, Complete-Mini EDTA-free, Roche, 11836170001, and Phosphatase Inhibitor Cocktail I, Sigma, P2850), directly in 96-well plates. Cells were lysed on ice for 60-120 min at 4° C. The supernatants were added directly to capture ELISA plates previously pre-coated with rabbit anti-AKT capture antibody. ELISA assays for pAKT(T308) and total AKT were performed with the pAKT(T308) ELISA kit (Cell Signaling Technology, 7144) and AKT1 ELISA kit (Cell Signaling Technology, 7142). For the pAKT(T308) ELISA, 85 μL of cell lysate was added to each well. For the total AKT1 ELISA, 15 μL of cell lysate and 85 μL of Starting Block buffer (Pierce, 37543) were added to each well. The plates were incubated overnight at 4° C. with gentle shaking, then washed 3 times with 200 μL of TBST (20 mM Tris, pH 7.4; 150 mM NaCl; 0.1% Tween 20) for 30 s each, and incubated for 1 h with 100 μL of detection antibody (mouse anti-pAKT(T308) antibody or mouse anti-AKT1 antibody). After 3 washes with TBST, the plates were incubated with a 1:1000 dilution of a horseradish peroxidase-labeled anti-mouse IgG (Cell Signaling Technology, 7076) in 100 μL of Starting Block buffer for 0.5 h. After 3 washes with TBST, 50 μL of SuperSignal ELISA Femto substrate solution (Thermo Scientific, 37075A) and 50 μL of SuperSignal ELISA enhancer solution mixture (Thermo Scientific, 37075B) were added to each well and the plates were incubated for approximately 2 min and protected from light. The wells were measured for luminescence using a Wallac plate reader at wavelength of 560 nm. After normalization of pAKT signal to total AKT1 signal, IC50 values were determined relative to the DMSO-treated control.

Experiment [2] concerns pAKT (T308) in HCT 116 cells (PI3Kα H1047R). As to the kind of experiment: pAKT (T308) ELISA Assay. Conditions: Homo sapiens, IGF1 stimulation, read-out: Cellular pAKT (T308) IC50 PI3KαH1047R HCT 116 IGF1. It is filed as cell-based. The procedure: as §1
The test system of experiment [3] is pAKT (T308) in SK-BR-3 cells (PI3Kα wt). The experiment in a line: pAKT (T308) ELISA Assay. Format: cell-based. Conditions: Homo sapiens, heregulin stimulation, read-out: Cellular pAKT (T308) IC50 PI3Kαwt SK-BR-3 hereg. The procedure:
as §1
A general note: An ELISA detects its analyte on a solid surface through an enzyme-linked reagent.

Experiment [4] relates to pAKT (T308) in MDA-MB-453 cells (PI3Kα H1047R). As to the kind of experiment: pAKT (T308) ELISA Assay. Format: cell-based. The conditions noted are these: Homo sapiens, heregulin stimulation, read-out: Cellular pAKT (T308) IC50 PI3KαH1047R MDA-MB-453 hereg. The procedure:
as §1

Experiment [5] relates to pAKT (T308) in SK-OV-3 cells (PI3Kα H1047R). As to the kind of experiment: pAKT (T308) ELISA Assay. Format: cell-based. The conditions noted are these: Homo sapiens, IGF1 stimulation, read-out: Cellular pAKT (T308) IC50 PI3KαH1047R SK-OV-3 IGF1. The procedure: as §1
[6] abbreviates: read-out: Cellular pAKT (T308) IC50 PI3KαH1047R T-47D IGF1.
Setting [7] is: read-out: pAKT (T308) IC50 T-47D PI3Kα H1047R IGF1.

Chain of PI3Kβ (P42338 whole entry): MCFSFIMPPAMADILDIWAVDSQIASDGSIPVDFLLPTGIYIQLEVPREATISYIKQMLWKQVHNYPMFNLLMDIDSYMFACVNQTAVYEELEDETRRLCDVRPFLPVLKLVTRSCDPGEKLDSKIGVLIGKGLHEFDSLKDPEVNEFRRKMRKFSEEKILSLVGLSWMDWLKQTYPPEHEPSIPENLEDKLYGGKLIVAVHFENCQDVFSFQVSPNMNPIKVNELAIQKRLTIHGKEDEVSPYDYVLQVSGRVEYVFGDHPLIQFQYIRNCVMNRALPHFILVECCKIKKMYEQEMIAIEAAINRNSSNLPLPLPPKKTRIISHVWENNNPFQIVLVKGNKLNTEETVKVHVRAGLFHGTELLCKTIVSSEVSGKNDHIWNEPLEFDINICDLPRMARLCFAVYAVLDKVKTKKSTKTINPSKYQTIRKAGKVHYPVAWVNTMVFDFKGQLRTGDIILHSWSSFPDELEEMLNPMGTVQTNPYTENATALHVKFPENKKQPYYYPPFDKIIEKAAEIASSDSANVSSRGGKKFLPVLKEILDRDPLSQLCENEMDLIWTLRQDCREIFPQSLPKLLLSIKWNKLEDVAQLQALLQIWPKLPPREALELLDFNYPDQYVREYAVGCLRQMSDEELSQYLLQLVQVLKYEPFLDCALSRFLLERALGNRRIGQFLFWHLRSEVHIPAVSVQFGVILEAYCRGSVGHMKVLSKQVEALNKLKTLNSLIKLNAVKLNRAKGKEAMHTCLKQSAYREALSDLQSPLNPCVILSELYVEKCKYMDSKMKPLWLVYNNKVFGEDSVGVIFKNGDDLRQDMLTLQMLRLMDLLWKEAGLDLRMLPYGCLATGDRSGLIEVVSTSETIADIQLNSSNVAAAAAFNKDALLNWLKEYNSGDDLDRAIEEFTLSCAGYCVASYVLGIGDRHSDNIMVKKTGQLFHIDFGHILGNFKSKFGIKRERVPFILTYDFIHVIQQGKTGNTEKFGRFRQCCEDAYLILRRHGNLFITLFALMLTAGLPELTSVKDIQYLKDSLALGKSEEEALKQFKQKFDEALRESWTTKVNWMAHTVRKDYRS
Chain of PI3Kβ (P27986 whole entry partner): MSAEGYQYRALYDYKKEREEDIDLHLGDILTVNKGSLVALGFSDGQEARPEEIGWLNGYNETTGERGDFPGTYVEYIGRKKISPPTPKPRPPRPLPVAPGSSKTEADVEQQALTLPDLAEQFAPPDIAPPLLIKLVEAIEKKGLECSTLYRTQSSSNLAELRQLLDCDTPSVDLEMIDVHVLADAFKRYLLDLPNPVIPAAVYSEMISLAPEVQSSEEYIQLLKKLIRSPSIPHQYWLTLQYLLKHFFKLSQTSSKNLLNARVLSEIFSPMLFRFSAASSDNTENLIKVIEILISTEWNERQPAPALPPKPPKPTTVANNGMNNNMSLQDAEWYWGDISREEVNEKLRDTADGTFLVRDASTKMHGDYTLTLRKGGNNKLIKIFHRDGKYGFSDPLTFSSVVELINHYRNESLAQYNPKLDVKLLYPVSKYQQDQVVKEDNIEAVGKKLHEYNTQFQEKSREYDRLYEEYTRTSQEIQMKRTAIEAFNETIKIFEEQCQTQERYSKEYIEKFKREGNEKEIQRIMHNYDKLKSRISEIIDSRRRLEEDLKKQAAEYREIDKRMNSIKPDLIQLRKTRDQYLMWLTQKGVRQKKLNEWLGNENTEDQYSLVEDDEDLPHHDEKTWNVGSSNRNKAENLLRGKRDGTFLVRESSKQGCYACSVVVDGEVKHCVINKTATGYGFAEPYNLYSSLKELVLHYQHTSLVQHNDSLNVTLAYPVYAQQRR

The term IC50 denotes the concentration needed to halve the response being measured. On to `Cc1nc2cc(-c3ccc4c(c3)CN(c3nc(CN(C)C)nc(C)c3C(C)C)CCO4)cnc2[nH]1` [Compound 694], for which the IC50 on PI3Kβ was above 3000 nM; in experiment [1] (setting [6]), 102 nM; in experiment [1] (setting [7]), 102 nM; in experiment [2] it was 130 nM; in experiment [3] it was 115 nM; in experiment [4], 18 nM.

`Cc1nc2ncc(-c3ccc4c(c3)CN(c3nc(CN(C)C)nc5c3CC(C)(C)CC5)CCO4)cc2[nH]1` [Compound 693]: the IC50 on PI3Kβ was above 3000 nM; in experiment [1] (setting [6]), 73 nM; in experiment [1] (setting [7]), 73 nM; in experiment [2], 168 nM; in experiment [3], 339 nM; in experiment [4], 40 nM.

With `CCNc1nc2ccc(-c3ccc4c(c3)CN(c3ncnc(NCC)c3C)CCO4)cc2[nH]1` [Compound 699], the IC50 was 1740 nM against PI3Kβ; 207 nM in experiment [1] (setting [6]); 207 nM in experiment [1] (setting [7]); 719 nM in experiment [2]; 4540 nM in experiment [3]; 639 nM in experiment [4]. The IC50 in experiment [5] amounted to 1240 nM.

Consider `CCNc1nc2ccc(-c3ccc4c(c3)CN(c3ccnc5cc(F)ccc35)CCO4)cc2[nH]1` [Compound 698], for which the IC50 on PI3Kβ was found to be 1560 nM; in experiment [1] (setting [6]), 258 nM; in experiment [1] (setting [7]), 258 nM; in experiment [2], 462 nM; in experiment [3], 2860 nM; in experiment [4] it was 118 nM. For the same molecule, the IC50 in experiment [5] was found to be 438 nM.

As to `COc1ccc2c(N3CCOc4ccc(-c5cnc6nc(C)[nH]c6c5)cc4C3)nc(CN(C)C)nc2c1` [Compound 696], the IC50 was 1310 nM against PI3Kβ; 213 nM in experiment [1] (setting [6]); 213 nM in experiment [1] (setting [7]); 400 nM in experiment [2]; 1240 nM in experiment [3]; 117 nM in experiment [4]. Besides, the IC50 in experiment [5] is 956 nM.
